Source: PMC9928189 (ACS catalysis, 2022)
Residue numbers refer to the chain shown, from its start.

What was measured:
Assay in all cases: X-ray crystal structure
Format in all cases: binding
MroM-CspL = biological target: T1, MroM-CspL (Mycena rosella, UniProt A0A9X9ZA30); conditions: 1.93 Å; cyclosporin-like core fused and N-methylated
T1 sequence (A0A9X9ZA30 4-402): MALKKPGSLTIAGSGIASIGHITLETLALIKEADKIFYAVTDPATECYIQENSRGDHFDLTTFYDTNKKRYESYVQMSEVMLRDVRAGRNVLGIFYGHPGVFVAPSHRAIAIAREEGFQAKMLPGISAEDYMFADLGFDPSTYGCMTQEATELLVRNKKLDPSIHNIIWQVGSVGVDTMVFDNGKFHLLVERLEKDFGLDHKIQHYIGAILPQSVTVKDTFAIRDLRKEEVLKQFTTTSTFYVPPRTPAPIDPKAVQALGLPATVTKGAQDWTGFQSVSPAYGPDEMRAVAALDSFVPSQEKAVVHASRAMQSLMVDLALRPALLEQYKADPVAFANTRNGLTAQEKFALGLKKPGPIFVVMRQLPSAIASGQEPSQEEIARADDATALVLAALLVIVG

MroM-A2 = biological target: T2, MroM-A2 (Mycena rosella, UniProt A0A9X9ZA29); conditions: 1.86 Å; core peptide A2 fused and N-methylated
T2 sequence (A0A9X9ZA29 4-400): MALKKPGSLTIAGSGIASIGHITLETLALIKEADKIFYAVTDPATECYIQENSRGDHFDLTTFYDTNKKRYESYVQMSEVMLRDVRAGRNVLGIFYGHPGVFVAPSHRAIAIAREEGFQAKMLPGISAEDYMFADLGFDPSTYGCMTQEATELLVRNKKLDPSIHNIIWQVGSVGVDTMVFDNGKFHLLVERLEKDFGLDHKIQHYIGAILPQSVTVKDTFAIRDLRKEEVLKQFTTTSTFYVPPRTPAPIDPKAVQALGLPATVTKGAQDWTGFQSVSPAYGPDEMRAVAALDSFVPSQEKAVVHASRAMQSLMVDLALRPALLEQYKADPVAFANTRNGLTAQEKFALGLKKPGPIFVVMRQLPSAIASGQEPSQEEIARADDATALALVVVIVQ

MroM-A1 = biological target: T3, MroM-A1 (Mycena rosella, UniProt A0A9X9ZA27); conditions: 1.79 Å; core peptide A1 fused and N-methylated
T3 sequence (A0A9X9ZA27 4-400): T2 sequence (A0A9X9ZA29 4-400) with L389F, A390I, L391I, V392I, V393Y, V394I, I395V, V396Q, Q397G

Q: With `Nc1ncnc2c1ncn2[C@@H]1O[C@H](CSCC[C@H](N)C(=O)O)[C@@H](O)[C@H]1O` [S-adenosylhomocysteine] as the compound, how does the X-ray crystal structure (MroM-CspL) read?
A: Each structure was determined in complex with product S-adenosylhomocysteine (SAH)

Q: And the X-ray crystal structure (MroM-A2)?
A: Each structure was determined in complex with product S-adenosylhomocysteine (SAH)

Q: And the X-ray crystal structure (MroM-A1)?
A: Each structure was determined in complex with product S-adenosylhomocysteine (SAH)
